Results reported in patent US3941850A, “α,α,α',α'-TETRAKIS(4-HYDROXY-3,5-DISUBSTITUTED PHENYL)XYLENE” (The Quaker Oats Company, priority 1974, dated 1976).
One block for each compound: values may come before it.

Columns and labels:
[1] = Antioxidant evaluation in cis-polyisoprene (IR carbonyl band, film in oven); settings: 130°C oven, 0.100 g antioxidant, until carbonyl band exceeded 6 cm
Procedure: A number of candidate antioxidants were evaluated in cis-polyisoprene. Cis-polyisoprene was cut up into small pieces and dissolved overnight in a rapidly stirred solution of 500 ml of toluene. If the antioxidant was readily soluble in toluene, 0.100 g was then added to the cis-polyisoprenetoluene solution and stirred until it dissolved. If the antioxidant was not readily soluble in toluene it was dissolved in a small amount of an appropriate solvent and then added to the toluene solution. A sample of the solution was then taken up in a capillary dropper and 15 drops were placed on a circular sodium chloride plate, 1 inch in diameter. The plate was then put in a 130°C. oven for a few minutes to evaporate the toluene.
An infrared spectrum was run of the film on the plate. The plate was then put back in the oven. Every hour it was removed and another infrared spectrum was run. This procedure was repeated until appreciable oxidation had taken place as indicated by the appearance of a carbonyl band at 1700-1750 cm^^-1. The test was ended when the carbonyl band exceded 6 cm on a Perkin Elmer Infrared Spectophotometer, Model 710. This length is approximately equal to the length of the peak at 1450 cm^^-1.

[2] = Solubility in ethanol and toluene; format: physicochemical; settings: 27°C
[3] = Heat aging test of polypropylene film; settings: 140°C, 5 mil film, 0.1 % by weight tetraphenolic derivative, 0 synergist
Procedure: A number of candidate stabilizers were incorporated in 5 mil thick samples of polypropylene film, and the resulting materials evaluated by heat aging the films. In some of the tests where indicated dilaurylthiodipropionate was added as synergist.
In the heat aging test, polypropylene film samples 5 mil in thickness were maintained in an oven at 140°C. Each sample was tested for loss of structural integrity. The number of hours shown in the table are the total elapsed hours before the film cracked or embrittled when flexed. The film was embrittled when it crumbled to a powder.

Structure (SMILES): Cc1ccc(Cc2cc(C(c3ccc(C(c4cc(Cc5ccc(C)cc5)c(O)c(Cc5ccc(C)cc5)c4)c4cc(Cc5ccc(C)cc5)c(O)c(Cc5ccc(C)cc5)c4)cc3)c3cc(Cc4ccc(C)cc4)c(O)c(Cc4ccc(C)cc4)c3)cc(Cc3ccc(C)cc3)c2O)cc1 [Test 22]
Maximum Protection [1]: 6 h

Structure (SMILES): Cc1cc(O)c(C(C)(C)C)cc1C(c1ccc(C(c2cc(C(C)(C)C)c(O)cc2C)c2cc(C(C)(C)C)c(O)cc2C)cc1)c1cc(C(C)(C)C)c(O)cc1C [Test 15]
Maximum Protection [1]: 6 h

Structure (SMILES): Cc1cc(C(c2ccc(C(c3cc(C)c(O)c(C)c3)c3cc(C)c(O)c(C)c3)cc2)c2cc(C)c(O)c(C)c2)cc(C)c1O [Test 12]
Maximum Protection [1]: 8 h

Structure (SMILES): Cc1cc(C(c2ccc(C(c3cc(C)c(O)c(C(C)(C)C)c3)c3cc(C)c(O)c(C(C)(C)C)c3)cc2)c2cc(C)c(O)c(C(C)(C)C)c2)cc(C(C)(C)C)c1O [Test 14]
Maximum Protection [1]: 13 h

Solubility, Ethanol [2]: < .14 g/100 ml
Solubility, Toluene [2]: < .17 g/100 ml
Structure (SMILES): Cc1cc(C(c2ccc(C(c3cc(C)c(O)cc3C)c3cc(C)c(O)cc3C)cc2)c2cc(C)c(O)cc2C)c(C)cc1O [Test 29]

Structure (SMILES): CCCCC(CC)Cc1cc(C(c2ccc(C(c3cc(CC(CC)CCCC)c(O)c(CC(CC)CCCC)c3)c3cc(CC(CC)CCCC)c(O)c(CC(CC)CCCC)c3)cc2)c2cc(CC(CC)CCCC)c(O)c(CC(CC)CCCC)c2)cc(CC(CC)CCCC)c1O (centres unmarked) [Test 20]
Maximum Protection [1]: 3 h

Structure (SMILES): CC(C)c1cc(C(c2ccc(C(c3cc(C(C)C)c(O)c(C(C)C)c3)c3cc(C(C)C)c(O)c(C(C)C)c3)cc2)c2cc(C(C)C)c(O)c(C(C)C)c2)cc(C(C)C)c1O [Test 16]
Maximum Protection [1]: 7 h

Solubility, Ethanol [2]: > 9 g/100 ml
Solubility, Toluene [2]: < .17 g/100 ml
Structure (SMILES): Cc1cc(O)c(C(C)(C)C)cc1C(c1ccc(C(c2cc(C(C)(C)C)c(O)cc2C)c2cc(C(C)(C)C)c(O)cc2C)cc1)c1cc(C(C)(C)C)c(O)cc1C [Test 31]

Structure (SMILES): CC(C)(C)c1cc(C(c2ccc(C(c3cc(C(C)(C)C)c(O)c(C(C)(C)C)c3)c3cc(C(C)(C)C)c(O)c(C(C)(C)C)c3)cc2)c2cc(C(C)(C)C)c(O)c(C(C)(C)C)c2)cc(C(C)(C)C)c1O [Test 19]
Maximum Protection [1]: 16 h

Structure (SMILES): Cc1cc(C(c2ccc(C(c3cc(C)c(O)c(C)c3)c3cc(C)c(O)c(C)c3)cc2)c2cc(C)c(O)c(C)c2)cc(C)c1O [Test 24]
Oven Hours, Cracked [3]: 31 h
Oven Hours, Embrittled [3]: 31 h

Solubility, Ethanol [2]: > 9 g/100 ml
Solubility, Toluene [2]: > 9 g/100 ml
Structure (SMILES): Cc1cc(C(c2ccc(C(c3cc(C)c(O)c(C(C)(C)C)c3)c3cc(C)c(O)c(C(C)(C)C)c3)cc2)c2cc(C)c(O)c(C(C)(C)C)c2)cc(C(C)(C)C)c1O [Test 30]

Structure (SMILES): CC(C)Cc1cc(C(c2ccc(C(c3cc(CC(C)C)c(O)c(CC(C)C)c3)c3cc(CC(C)C)c(O)c(CC(C)C)c3)cc2)c2cc(CC(C)C)c(O)c(CC(C)C)c2)cc(CC(C)C)c1O [Test 18]
Maximum Protection [1]: 6 h

Structure (SMILES): Cc1cc(C(c2ccc(C(c3cc(C)c(O)cc3C)c3cc(C)c(O)cc3C)cc2)c2cc(C)c(O)cc2C)c(C)cc1O [Test 13]
Maximum Protection [1]: 3 h

Solubility, Ethanol [2]: 3 g/100 ml
Solubility, Toluene [2]: < .17 g/100 ml
Structure (SMILES): Cc1cc(C(c2ccc(C(c3cc(C)c(O)c(C)c3)c3cc(C)c(O)c(C)c3)cc2)c2cc(C)c(O)c(C)c2)cc(C)c1O [Test 28]

Structure (SMILES): Cc1cc(C(c2ccc(C(c3cc(C)c(O)cc3C)c3cc(C)c(O)cc3C)cc2)c2cc(C)c(O)cc2C)c(C)cc1O [Test 26]
Oven Hours, Cracked [3]: 30 h
Oven Hours, Embrittled [3]: 30 h

Structure (SMILES): CCC(C)c1cc(C(c2ccc(C(c3cc(C(C)CC)c(O)c(C(C)CC)c3)c3cc(C(C)CC)c(O)c(C(C)CC)c3)cc2)c2cc(C(C)CC)c(O)c(C(C)CC)c2)cc(C(C)CC)c1O (centres unmarked) [Test 17]
Maximum Protection [1]: 7 h

Structure (SMILES): Oc1c(Cc2ccccc2)cc(C(c2ccc(C(c3cc(Cc4ccccc4)c(O)c(Cc4ccccc4)c3)c3cc(Cc4ccccc4)c(O)c(Cc4ccccc4)c3)cc2)c2cc(Cc3ccccc3)c(O)c(Cc3ccccc3)c2)cc1Cc1ccccc1 [Test 21]
Maximum Protection [1]: 7 h
